Source: patent EP4445909B1, “PHARMACEUTICAL FORMULATION CONSISTING OF C-PEPTIDE COMBINED WITH A BISPHOSPHONATE IN A SINGLE FORM AND ITS USE IN THE TREATMENT OF OSTEOSARCOPENIA” (Università Degli Studi Magna Graecia di Catanzaro, priority 2023, dated 2026)

Tests used:
Type in all cases: in vivo
bone = assay: Micro-CT of trabecular bone in diabetic rats after C-peptide administration; conditions: 72 nmol/kg/24 h, compared to the diabetes only group (D-CTR)
serum ubiquitin = assay: Serum ubiquitin in diabetic rats after C-peptide administration; conditions: 72 nmol/kg/24 h for 42 days
[1] = tested on: muscle fibers of the Gastrocnemius (GC), Thiabialis (TA) and the long finger extensor muscle (EDL); assay: Muscle fibre morphometry (CSA, perimeter, Minimum Feret diameter) after C-Peptide administration in diabetic rats; conditions: 72 nmol/kg/24 h for 42 days
Method: The experimental tests carried out by the Applicant have shown that the administration of 72 nmol/kg/24 h of C-Peptide for 42 days improves the cross-sectional area (CSA), the perimeter and the Minimum Feret diameter of the muscle fibers of the Gastrocnemius (GC), Thiabialis (TA) and the long finger extensor muscle (EDL) in diabetic rats. Specifically, the mean CSA of the GC fibers decreased by 39.5% in the diabetic group, while only 6.6% in the rats of the C-peptide group. The CSA of the TA and EDL muscles was reduced, in the C-peptide group, by 10% and 11%, respectively, while a reduction of 65% and 45% occurred in the diabetic group, compared to the control animals. Similar results were obtained with the other parameters (perimeter and Minimum Feret diameter).

C-peptide was tested, and the trabecular spaces (bone; p=0.01) was “reduction”, the trabecular thickness (bone; p=0.04) was “better” and the “serum ubiquitin, induced by diabetes” value (serum ubiquitin) was “prevents the increase”. For the same substance, the “cross-sectional area (CSA), perimeter and Minimum Feret diameter of the muscle fibers of GC, TA and EDL” value [1] was “improves”, the “mean CSA of the GC fibers decreased” value ([1]; Gastrocnemius, diabetic group decreased by 39.5%) was 6.6% and the “CSA of the EDL muscle reduced” value ([1]; compared to the control animals, diabetic group 45%) was 11%. The “CSA of the TA muscle reduced” value ([1]; compared to the control animals, diabetic group 65%) was 10%.
